Data published in patent US8574563B2 (Bristol-Myers Squibb Company, priority 2006, dated 2013).

Each molecule was assayed on HCV 1b-377-neo replicon cells (assay: HCV replicon assay, HCV 1b-377-neo replicon cells (1b FRET)). Details: Hepatitis C virus, HCV 1b-377-neo replicon cells; HCV 1b genotype; read-out: EC50 range against HCV 1b (Table 2, Range).
Format: cell-based, Hepatitis C virus genotype 1b
Procedure, shortened: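 Compounds were tested in genotype 1b subgenomic replicon cells carrying a neomycin marker, alongside a matched replicon line with an NS5A Y2065H substitution that confers resistance to a reference NS5A inhibitor.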

| Compound | EC50 |
| --- | --- |
| CN(C)[C@@H](C(=O)N1CCC[C@H]1c1ncc(-c2ccc(-c3ccc(-c4cnc([C@@H]5CCCN5C(=O)C5(C)CCN(C(=O)OC(C)(C)C)CC5)[nH]4)cc3)cc2)[nH]1)c1ccccc1 [Example 94-12, tert-butyl 4-(((2S)-2-(5-(4′-(2-((2S)-1-((2R)-2-(dimethylamino)-2-phenylacetyl)-2-pyrrolidinyl)-1H-imidazol-5-yl)-4-biphenylyl)-1H-imidazol-2-yl)-1-pyrrolidinyl)carbonyl)-4-methyl-1-piperidinecarboxylate] | 1 to 99 nM |
| CCN(CC)[C@@H](C(=O)N1CCC[C@H]1c1ncc(-c2ccc(-c3ccc(-c4cnc([C@@H]5CCCN5C(=O)[C@H](Cc5cscn5)NC(=O)OC)[nH]4)cc3)cc2)[nH]1)c1ccccc1 [cj-80, methyl ((1S)-2-((2S)-2-(5-(4′-(2-((2S)-1-((2R)-2-(diethylamino)-2-phenylacetyl)-2-pyrrolidinyl)-1H-imidazol-5-yl)-4-biphenylyl)-1H-imidazol-2-yl)-1-pyrrolidinyl)-2-oxo-1-(1,3-thiazol-4-ylmethyl)ethyl)carbamate] | 0.001 to 0.999 nM |
| CN(C)[C@@H](C(=O)N1CCC[C@H]1c1ncc(-c2ccc(-c3ccc(-c4cnc([C@@H]5CCCN5C(=O)[C@H]5CCN(Cc6ccccc6)C5)[nH]4)cc3)cc2)[nH]1)c1ccccc1 [Example 94-26, (1R)-2-((2S)-2-(5-(4′-(2-((2S)-1-(((3S)-1-benzyl-3-pyrrolidinyl)carbonyl)-2-pyrrolidinyl)-1H-imidazol-5-yl)-4-biphenylyl)-1H-imidazol-2-yl)-1-pyrrolidinyl)-N,N-dimethyl-2-oxo-1-phenylethanamine] | 0.001 to 0.999 nM |
| COC(=O)N[C@H](C(=O)N1CCC[C@H]1c1ncc(-c2ccc(-c3ccc(-c4cnc([C@@H]5CCCN5C(=O)[C@@H](NC(=O)OC)C(C)(C)O)[nH]4)cc3)cc2)[nH]1)C(C)(C)O [Example M14, methyl ((1S)-2-hydroxy-1-(((2S)-2-(5-(4′-(2-((2S)-1-((2S)-3-hydroxy-2-((methoxycarbonyl)amino)-3-methylbutanoyl)-2-pyrrolidinyl)-1H-imidazol-5-yl)-4-biphenylyl)-1H-imidazol-2-yl)-1-pyrrolidinyl)carbonyl)-2-methylpropyl)carbamate] | 100 to 999 nM |
| COC(=O)N[C@@H](C(=O)N1CCC[C@H]1c1ncc(-c2ccc(-c3ccc(-c4cnc([C@@H]5CCCN5C(=O)C(c5ccccc5)N5CCC(O)CC5)[nH]4)cc3)cc2)[nH]1)c1ccccc1 (stereo partly drawn) [Example 64, methyl ((1R)-2-((2S)-2-(5-(4′-(2-((2S)-1-((4-hydroxy-1-piperidinyl)(phenyl)acetyl)-2-pyrrolidinyl)-1H-imidazol-5-yl)-4-biphenylyl)-1H-imidazol-2-yl)-1-pyrrolidinyl)-2-oxo-1-phenylethyl)carbamate] | 0.001 to 0.999 nM |
| CCN(CC)[C@H]1CC[C@@H](C(=O)N2CCC[C@H]2c2ncc(-c3ccc(-c4ccc(-c5cnc([C@@H]6CCCN6C(=O)[C@@H](NC(=O)OC)C(C)C)[nH]5)cc4)cc3)[nH]2)CC1 [cj-71, methyl ((1S)-1-(((2S)-2-(5-(4′-(2-((2S)-1-((cis-4-(diethylamino)cyclohexyl)carbonyl)-2-pyrrolidinyl)-1H-imidazol-5-yl)-4-biphenylyl)-1H-imidazol-2-yl)-1-pyrrolidinyl)carbonyl)-2-methylpropyl)carbamate] | 0.001 to 0.999 nM |
| O=C(NC1CCCC1)N[C@@H](C(=O)N1CCC[C@H]1c1ncc(-c2ccc(-c3ccc(-c4cnc([C@@H]5CCCN5C(=O)[C@H](NC(=O)NC5CCCC5)c5ccccc5)[nH]4)cc3)cc2)[nH]1)c1ccccc1 [Example 24-4d, N′,N′′′-(4,4′-biphenyldiylbis(1H-imidazole-5,2-diyl(2S)-2,1-pyrrolidinediyl((1R)-2-oxo-1-phenyl-2,1-ethanediyl)))bis(1-cyclopentylurea)] | 0.001 to 0.999 nM |
| CCN(CC)[C@H](CC(N)=O)C(=O)N1CCC[C@H]1c1ncc(-c2ccc(-c3ccc(-c4cnc([C@@H]5CCCN5C(=O)[C@@H](NC(=O)OC)C(C)C)[nH]4)cc3)cc2)[nH]1 [Example M89, methyl ((1S)-1-(((2S)-2-(5-(4′-(2-((2S)-1-(N^2,N^2-diethyl-D-asparaginyl)-2-pyrrolidinyl)-1H-imidazol-5-yl)-4-biphenylyl)-1H-imidazol-2-yl)-1-pyrrolidinyl)carbonyl)-2-methylpropyl)carbamate] | 1 to 99 nM |
| COC(=O)N[C@H](C)C(=O)N1CCC[C@H]1c1ncc(-c2ccc(-c3ccc(-c4cnc([C@@H]5CCCN5C(=O)[C@@H](C)NC(=O)OC)[nH]4)cc3)cc2)[nH]1 [Example M18, methyl ((1R)-2-((2S)-2-(5-(4′-(2-((2S)-1-(N-(methoxycarbonyl)-D-alanyl)-2-pyrrolidinyl)-1H-imidazol-5-yl)-4-biphenylyl)-1H-imidazol-2-yl)-1-pyrrolidinyl)-1-methyl-2-oxoethyl)carbamate] | 1000 to 10000 nM |
| COC(=O)N[C@@H](C(=O)N1CCC[C@H]1c1ncc(-c2ccc(-c3ccc(-c4cnc([C@@H]5CCCN5C(=O)[C@@H]5C[C@@H](F)CN5)[nH]4)cc3)cc2)[nH]1)c1ccccc1 [Example 82, methyl ((1R)-2-((2S)-2-(5-(4′-(2-((2S)-1-((4R)-4-fluoro-L-prolyl)-2-pyrrolidinyl)-1H-imidazol-5-yl)-4-biphenylyl)-1H-imidazol-2-yl)-1-pyrrolidinyl)-2-oxo-1-phenylethyl)carbamate] | 0.001 to 0.999 nM |
| CCCN(CCC)[C@H](C)C(=O)N1CCC[C@H]1c1ncc(-c2ccc(-c3ccc(-c4cnc([C@@H]5CCCN5C(=O)[C@@H](NC(=O)OC)C(C)C)[nH]4)cc3)cc2)[nH]1 [Example M83, methyl ((1S)-1-(((2S)-2-(5-(4′-(2-((2S)-1-(N,N-dipropyl-D-alanyl)-2-pyrrolidinyl)-1H-imidazol-5-yl)-4-biphenylyl)-1H-imidazol-2-yl)-1-pyrrolidinyl)carbonyl)-2-methylpropyl)carbamate] | 1 to 99 nM |
| COC(=O)N[C@@H](C)C(=O)N1CCC[C@H]1c1ncc(-c2ccc(-c3ccc(-c4cnc([C@@H]5CCCN5C(=O)[C@H](NC(=O)OC)c5ccccc5)[nH]4)cc3)cc2F)[nH]1 [Example D38, methyl ((1R)-2-((2S)-2-(5-(3′-fluoro-4′-(2-((2S)-1-(N-(methoxycarbonyl)-L-alanyl)-2-pyrrolidinyl)-1H-imidazol-5-yl)-4-biphenylyl)-1H-imidazol-2-yl)-1-pyrrolidinyl)-2-oxo-1-phenylethyl)carbamate] | 0.001 to 0.999 nM |
| CCCc1[nH]c([C@@H]2CCCN2C(=O)[C@H](C)NC(=O)OC)nc1-c1ccc(-c2ccc(-c3cnc([C@@H]4CCCN4C(=O)[C@H](C)NC(=O)OC)[nH]3)cc2)cc1 [Example J14c, methyl ((1S)-2-((2S)-2-(4-(4′-(2-((2S)-1-(N-(methoxycarbonyl)-L-alanyl)-2-pyrrolidinyl)-4-propyl-1H-imidazol-5-yl)-4-biphenylyl)-1H-imidazol-2-yl)-1-pyrrolidinyl)-1-methyl-2-oxoethyl)carbamate] | 0.001 to 0.999 nM |
| C[C@@H](c1ncc(-c2ccc(-c3ccc(-c4cnc([C@H](C)N(C)C(=O)[C@@H](c5ccccc5)N(C)C)[nH]4)cc3)cc2)[nH]1)N(C)C(=O)[C@@H](c1ccccc1)N(C)C [Example 24-18-2, (2R,2′R)-N,N′-(4,4′-biphenyldiylbis(1H-imidazole-5,2-diyl(1S)-1,1-ethanediyl))bis(2-(dimethylamino)N-methyl-2-phenylacetamide)] | 0.001 to 0.999 nM |
